Measurements reported in patent publication US12209086B2, “FGFR3 inhibitor compounds” (ELI LILLY AND COMPANY, priority 2021, dated 2025).

biological target: T1, FGFR3 protein (Homo sapiens, UniProt P22607); assay: FGFR3 enzyme assay (KinEASE-TK HTRF kinase assay); format: biochemical; settings: 0.25 nM enzyme, ATP at Km, 15 min pre-incubation on ice, 30 min at 30° C.
T1 construct: purchased Reaction Biology 1068
Method: FGFR3 and FGFR1 Enzyme Assay
Enzyme activity was monitored using the KinEASE™-TK Assay Kit (Cisflio, Cat. No. 62TK0PEC) according to the manufacturer's instructions. All assays were performed at the respective KmATP for each kinase in KinEASE™ Kinase Buffer.
Titration of compounds were performed in a half-log manner in 100% dimethyl sulfoxide (DMSO) starting at 1 uM. Prior to the initiation of the reaction by adenosine triphosphate (ATP), FGFR1 protein and compounds were pre-incubated for 15 minutes at room temperature, and FGFR3 protein and compounds were pre-incubated on ice for 15 minutes. Reactions proceeded for 30 min at 30° C. Plates were quenched by the addition of the Anti-TK cryptate antibody/Streptavidin-XL665 mixture.
Ratios were converted to a percent of control (POC) using a ratiometric emission factor. One hundred POC was determined using no test compound, and 0 POC was determined in the presence of 1 uM of an appropriate control inhibitor.

T1 sequence (P22607 23-806): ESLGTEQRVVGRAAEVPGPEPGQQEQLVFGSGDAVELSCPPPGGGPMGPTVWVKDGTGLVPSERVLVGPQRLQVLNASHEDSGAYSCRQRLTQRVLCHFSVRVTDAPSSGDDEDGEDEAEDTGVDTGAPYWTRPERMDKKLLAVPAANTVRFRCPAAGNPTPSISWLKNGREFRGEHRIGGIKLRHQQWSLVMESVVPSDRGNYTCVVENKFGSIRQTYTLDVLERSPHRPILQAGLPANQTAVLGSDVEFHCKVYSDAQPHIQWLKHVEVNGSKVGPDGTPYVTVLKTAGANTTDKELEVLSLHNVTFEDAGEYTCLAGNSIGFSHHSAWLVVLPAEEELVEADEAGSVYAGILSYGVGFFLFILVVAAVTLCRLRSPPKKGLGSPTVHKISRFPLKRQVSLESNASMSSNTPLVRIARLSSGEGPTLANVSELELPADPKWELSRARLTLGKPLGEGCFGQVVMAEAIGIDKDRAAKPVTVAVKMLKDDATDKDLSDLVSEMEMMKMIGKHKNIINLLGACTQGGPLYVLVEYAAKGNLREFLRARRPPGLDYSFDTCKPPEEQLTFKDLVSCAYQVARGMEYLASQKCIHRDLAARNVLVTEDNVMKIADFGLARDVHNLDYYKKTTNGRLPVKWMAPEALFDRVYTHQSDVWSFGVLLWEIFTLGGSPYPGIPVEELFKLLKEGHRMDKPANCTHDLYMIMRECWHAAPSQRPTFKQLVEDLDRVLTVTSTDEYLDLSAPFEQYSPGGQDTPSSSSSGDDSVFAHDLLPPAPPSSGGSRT

Row | Structure (SMILES) | IC50 [µM]
1 | Cc1c(-c2cc(N[C@H](C)c3ccccn3)c3c(C#N)cnn3c2)cnn1C1CCN(C2CN(C#N)C2(C)C)CC1 (single isomer, unassigned) [Example 94] | < 0.05
2 | Cc1c(-c2cc(OC(C)c3cncc(C(F)(F)F)n3)n3c(C#N)cnc3c2)nnn1C1CCN(C#N)CC1 (single isomer, unassigned) [Example 99, 7-[1-(1-Cyano-4-piperidyl)-5-methyl-triazol-4-yl]-5-[1-[6-(trifluoromethyl)pyrazin-2-yl]ethoxy]imidazo [1,2-a]pyridine-3-carbonitrile] | < 0.05
3 | Cc1c(-c2cc(OC(CO)c3ccc(F)cn3)c3c(Cl)cnn3c2)nnn1C1CC(N2CCN(C#N)CC2)C1 (single isomer, unassigned) [Example 152, Cis-4-[3-[4-[3-Chloro-4-[1-(5-fluoro-2-pyridyl)-2-hydroxy-ethoxy]pyrazolo[1,5-a]pyridin-6-yl]-5-methyl-triazol-1-yl]cyclobutyl] piperazine-1-carbonitrile] | < 0.05
4 | Cc1c(-c2cc(OCC(O)c3ccc(F)cn3)c3c(Cl)cnn3c2)nnn1C1CCN(C#N)CC1 (single isomer, unassigned) [Example 155, 4-[4-[3-Chloro-4-[2-(5-fluoro-2-pyridyl)-2-hydroxy-ethoxy]pyrazolo[1,5-a]pyridin-6-yl]-5-methyl-triazol-1-yl]piperidine-1-carbonitrile] | < 0.05
5 | COc1cc(-c2cnn(C3CCN(C4CN(C#N)C4(C)C)CC3)c2C)cn2ncc(C#N)c12 (single isomer, unassigned) [Example 173, 3-[4-(4-[3-Cyano-4-methoxypyrazolo[1,5-a]pyridin-6-yl]-5-methylpyrazol-1-yl)piperidin-1-yl]-2,2-dimethylazetidine-1-carbonitrile] | < 0.05
6 | COc1cc(-c2cnn(C3CN(C4CCN(C#N)CC4(F)F)C3)c2C)cn2ncc(C#N)c12 (single isomer, unassigned) [Example 179, 4-[3-(4-[3-Cyano-4-methoxypyrazolo[1,5-a]pyridin-6-yl]-5-methylpyrazol-1-yl)azetidin-1-yl]-3,3-difluoropiperidine-1-carbonitrile] | < 0.05
7 | Cc1c(-c2cc(O[C@H](C)c3ccccn3)n3c(C#N)cnc3c2)nnn1C1CCN(C#N)C(C2CC2)C1 (single isomer, unassigned) [Example 281] | < 0.05
8 | Cc1c(-c2cc(OC(c3ccc(F)cn3)C(F)(F)F)n3c(C#N)cnc3c2)nnn1C1CCN(C#N)CC1 (single isomer, unassigned; isomer 1) [Example 48, 7-[1-(1-Cyano-4-piperidyl)-5-methyl-triazol-4-yl]-5-[2,2,2-trifluoro-1-(5-fluoro-2-pyridyl)ethoxy]imidazo[1,2-a]pyridine-3-carbonitrile, Isomer 1] | < 0.05
9 | COCC(Oc1cc(-c2nnn(C3CCN(C#N)CC3)c2C)cc2ncc(C#N)n12)c1ccc(F)cn1 (single isomer, unassigned; isomer 1) [Example 49, 7-[1-(1-Cyano-4-piperidyl)-5-methyl-triazol-4-yl]-5-[1-(5-fluoro-2-pyridyl)-2-methoxy-ethoxy]imidazo[1,2-a]pyridine-3-carbonitrile, Isomer 1] | < 0.05
10 | COCC(Oc1cc(-c2nnn(C3CCN(C#N)CC3)c2C)cn2ncc(C#N)c12)c1cncc(C(F)(F)F)c1 (single isomer, unassigned; isomer 1) [Example 61, 6-[1-(1-cyano-4-piperidyl)-5-methyl-triazol-4-yl]-4-[2-methoxy-1-[5-(trifluoromethyl)-3-pyridyl]ethoxy]pyrazolo [1,5-a]pyridine-3-carbonitrile, Isomer 1] | < 0.05

Next, values leading:

Row | IC50 [µM] | Structure (SMILES)
11 | < 0.1 | Cc1c(-c2cc(OC(C)c3ccccc3-c3ccon3)n3c(C#N)cnc3c2)nnn1C1CCN(C#N)CC1 (single isomer, unassigned) [Example 142, 7-[1-(1-Cyano-4-piperidyl)-5-methyl-triazol-4-yl]-5-[1-(2-isoxazol-3-ylphenyl)ethoxy] imidazo [1,2-a]pyridine-3-carbonitrile]
12 | < 0.05 | Cc1c(-c2cc(OCC(O)c3ccc(F)cn3)c3c(Cl)cnn3c2)nnn1C1CCN(C#N)CC1 (single isomer, unassigned) [Example 154, 4-[4-[3-Chloro-4-[2-(5-fluoro-2-pyridyl)-2-hydroxy-ethoxy]pyrazolo[1,5-a]pyridin-6-yl]-5-methyl-triazol-1-yl]piperidine-1-carbonitrile]
13 | < 0.05 | Cc1c(-c2cc(OCC(C)(O)c3ccc(F)cn3)c3c(Cl)cnn3c2)nnn1C1CCN(C#N)CC1 (single isomer, unassigned) [Example 156, 4-[4-[3-Chloro-4-[2-(5-fluoro-2-pyridyl)-2-hydroxy-propoxy]pyrazolo[1,5-a]pyridin-6-yl]-5-methyl-triazol-1-yl]piperidine-1-carbonitrile]
14 | < 0.05 | Cc1c(-c2cc(OCC(C)(O)c3ccc(F)cn3)c3c(F)cnn3c2)nnn1C1CCN(C#N)CC1 (single isomer, unassigned) [Example 157, 4-[4-[3-Fluoro-4-[2-(5-fluoro-2-pyridyl)-2-hydroxy-propoxy]pyrazolo[1,5-a]pyridin-6-yl]-5-methyl-triazol-1-yl]piperidine-1-carbonitrile]
15 | < 0.1 | Cc1c(-c2cc(OC(c3ccccn3)C(C)(C)C)n3c(C#N)cnc3c2)nnn1C1CCN(C#N)CC1 (single isomer, unassigned) [Example 264, 7-[1-(1-Cyano-4-piperidyl)-5-methyl-triazol-4-yl]-5-[2,2-dimethyl-1-(2-pyridyl)propoxy] imidazo[1,2-a]pyridine-3-carbonitrile]
16 | < 0.05 | Cc1c(-c2cc(OC(CO)c3ccc(F)cn3)c3c(Cl)cnn3c2)nnn1[C@H]1C[C@@H](N2CC3COCC(C2)N3C#N)C1 (single isomer, unassigned) [Example 280]
17 | < 0.05 | Cc1c(-c2cc(OC(C)c3cncc(C(F)(F)F)c3)n3c(C#N)cnc3c2)nnn1C1CCN(C#N)CC1 (single isomer, unassigned; isomer 1) [Example 41, 7-[1-(1-Cyano-4-piperidyl)-5-methyl-triazol-4-yl]-5-[1-[5-(trifluoromethyl)-3-pyridyl]ethoxy]imidazo[1,2-a]pyridine-3-carbonitrile, Isomer 1]
18 | < 0.05 | Cc1c(-c2cc(OC(CO)c3ccc(F)cn3)c3c(C#N)cnn3c2)cnn1C1CCN(C#N)CC1 (single isomer, unassigned; isomer 1) [Example 43, 6-[1-(1-Cyano-4-piperidyl)-5-methyl-pyrazol-4-yl]-4-[1-(5-fluoro-2-pyridyl)-2-hydroxy-ethoxy]pyrazolo[1,5-a]pyridine-3-carbonitrile, Isomer 1]
19 | < 0.05 | CCC(Oc1cc(-c2nnn(C3CCN(C#N)CC3)c2C)cc2ncc(C#N)n12)c1ccc(F)cn1 (single isomer, unassigned; isomer 1) [Example 51, 7-[1-(1-Cyano-4-piperidyl)-5-methyl-triazol-4-yl]-5-[1-(5-fluoro-2-pyridyl)propoxy]imidazo[1,2-a]pyridine-3-carbonitrile, Isomer 1]
20 | < 0.05 | COCC(Oc1cc(-c2nnn(C3CCN(C#N)CC3)c2C)cn2ncc(C#N)c12)c1ccc(F)cn1 (single isomer, unassigned; isomer 1) [Example 53, 6-[1-(1-Cyano-4-piperidyl)-5-methyl-triazol-4-yl]-4-[1-(5-fluoro-2-pyridyl)-2-methoxy-ethoxy]pyrazolo[1,5-a]pyridine-3-carbonitrile, Isomer 1]
